Test results taken from patent publication US20090297637A1.

What was measured:
[1] = system: breast cancer; conditions: cited from earlier work
[2] = system: TNF-RE tkLuc; test: Activation of TNF-RE tkLuc reporter (Example 2); type: cell-based, human; conditions: for effect on the repression induced by E2: TNF-RE tkLuc
Description: (§1) Plasmid Construction. […] ERβ mutants were created with QuikChange site-directed mutagenesis kits (Stratagene), by using oligonucleotides containing the mutation. The mutants were sequenced with Sequenase kits (Amersham Pharmacia) to verify the presence of the mutation.

[3] = target: T1, ERβ (Homo sapiens, UniProt Q92731); conditions: in the presence of ERβ
T1 sequence (Q92731 whole entry): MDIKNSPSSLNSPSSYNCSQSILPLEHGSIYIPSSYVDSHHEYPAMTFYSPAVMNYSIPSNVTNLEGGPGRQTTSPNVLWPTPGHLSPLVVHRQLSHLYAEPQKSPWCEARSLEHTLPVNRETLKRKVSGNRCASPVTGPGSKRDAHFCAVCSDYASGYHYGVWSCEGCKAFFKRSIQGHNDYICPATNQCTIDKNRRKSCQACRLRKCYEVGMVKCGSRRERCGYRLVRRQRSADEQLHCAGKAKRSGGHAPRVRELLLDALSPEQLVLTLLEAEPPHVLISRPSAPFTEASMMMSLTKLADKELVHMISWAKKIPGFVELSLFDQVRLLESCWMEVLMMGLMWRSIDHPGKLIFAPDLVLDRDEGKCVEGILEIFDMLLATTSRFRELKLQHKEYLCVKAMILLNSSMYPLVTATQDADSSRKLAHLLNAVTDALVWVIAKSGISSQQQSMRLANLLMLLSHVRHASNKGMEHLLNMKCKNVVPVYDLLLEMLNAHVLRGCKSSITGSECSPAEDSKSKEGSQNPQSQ
Description: as §1

[4] = target: T1, ERβ; test: Repression of TNF-α activation of TNF-RE tkLuc in U2OS cells; type: cell-based; design: expressed in transfected cells
[5] = target: T1, ERβ; test: ERE-tk-Luc luciferase assay in U2OS osteosarcoma cells; type: cell-based; design: expressed in transfected cells; host or cells: U2OS (human osteosarcoma); conditions: co-administration with the extract
[6] = system: breast cancer; conditions: among 5129 women in the treatment group, median follow-up 40 months; cited from earlier work

## CC/C(=C(\c1ccccc1)c1ccc(OCCN(C)C)cc1)c1ccccc1 [tamoxifen]
[1]; BCPT, women at high risk for breast cancer
  reduction of the risk of primary invasive breast cancer: 49%
[1]; five years of therapy, ER-positive breast cancer
  reduction of the risk of recurrences: 42%
[1]; five years of therapy
  reduction of mortality from breast cancer: 22%
[2]
  activation of TNF-RE tkLuc by antiestrogens: 2 fold
  effect on the repression induced by E2: abolished the repression induced by E2

## C[C@]12CC[C@@H]3c4ccc(O)cc4CC[C@H]3[C@@H]1CC[C@@H]2O [Herb E2, estradiol]
[3]
  repression of TNF-α activation of TNF-RE tkLuc: 60-80%
[4]
  repression of TNF-α activation of TNF-RE: 100%

## O=C(c1ccc(OCCN2CCCCC2)cc1)c1c(-c2ccc(O)cc2)sc2cc(O)ccc12 [raloxifene]
[5]; FIG. 5
  effect of anti-estrogen on extract-stimulated ERE-tk-Luc expression: counteracted
[5]; FIG. 5, listed as Raloxifene
  effect of anti-estrogen on extract-stimulated ERE-tk-Luc expression: attenuated
[6]
  cases of breast cancer: 13 cases
[2]
  activation of TNF-RE tkLuc by antiestrogens: 2 fold
  effect on the repression induced by E2: abolished the repression induced by E2

## C[C@]12CC[C@@H]3c4ccc(O)cc4C[C@@H](CCCCCCCCC[S+]([O-])CCCC(F)(F)C(F)(F)F)[C@H]3[C@@H]1CC[C@@H]2O (some centres unmarked) [ICI 182780]
[5]; FIG. 5
  effect of anti-estrogen on extract-stimulated ERE-tk-Luc expression: counteracted
[5]; FIG. 5, listed as ICI
  effect of anti-estrogen on extract-stimulated ERE-tk-Luc expression: attenuated
[2]
  activation of TNF-RE tkLuc by antiestrogens: 2 fold
  effect on the repression induced by E2: abolished the repression induced by E2

## TNF-α
[2]; TNF-α as stimulus
  activation of 3 copies of the TNF-RE (−125 to −82) upstream of the tk promoter: 5-10 fold
